# Data as given in patent US5726162A (priority 1996, dated 1998).
# Like-named read-outs stand apart in the source and are kept apart here.
# Experiments:
# fungal mycelium = assay: organism not typed; type: cell-based; conditions: read-out: % growth inhibition
# [1] = test system: Magnaporthe grisea (Pyricularia oryzae); assay: whole plant or invertebrate; type: in vivo, Magnaporthe grisea (Pyricularia oryzae) on M201 rice plants; conditions: Pyricularia oryzae, 144 h, read-out: % Control RB
# [2] = test system: Thanatephorus cucumeris (Rhizoctonia solani); assay: In vivo test b) Rice Sheath Blight (RSB), 24 hour preapplication protectant, % control; conditions: 200 ppm, protectant, read-out: % Control RSB
# Description: Compounds were tested at 200 ppm as a twenty-four hour preapplication protectant test prior to inoculation.
# b) Rice Sheath Blight (RSB)
# Thanatephorus cucumeris (Rhizoctonia solani) mycelia were grown for six days in potato dextrose broth in shake culture. Drained mycelial mats were blended with an approximately equal weight of rice flour and five parts water. This slurry was dispensed onto the soil surface of pots containing rice seedlings previously treated with experimental compounds. The plants were placed in a mist chamber at 25°-28° C. for 48 hours. Following two more days at 25° C. and 70-90% relative humidity the plants were evaluated for percent disease control compared to check plants.
# Candida albicans = assay: Activity against Candida albicans in microtiter plates, % control of growth; type: cell-based
# Description: The activity against Candida albicans was determined using the following test protocol.
# Conidia and mycelium from the Candida albicans culture maintained on potato dextrose agar plates were lightly scraped off into yeast extract-dextrose broth (YDB) so that mostly conidia was used as inoculum. The conidial suspsension was strained through a double layer of cheesecloth to remove mycelial clumps. The inoculum mixture was placed in microtiter plates using a 12-tipped pipet. 175 microliters were placed in each well of the microliter plates and the plates were placed in the refrigerator overnight. There were two replications.
# The compounds to be tested were dissolved in 1:1 acetone:methanol and 100 ppm of the compound solution were placed in a well of the prepared microtiter plates.
# The microtiter plates were incubated for 7 days at room temperature after addition of the compounds. Percent control was visually estimated using a microtiter plate reading mirror. Readings were made at 1, 2, 3, and/or 7 days after treatment.
# fungal inoculum = assay: organism not typed; type: cell-based; conditions: read-out: % growth inhibition
# [3] = 24 h, 1 day after treatment, read-out: % control of growth +1
# [4] = 48 h, 2 days after treatment, read-out: % control of growth +2
# [5] = 72 h, 3 days after treatment, read-out: % control of growth +3
SMILES,inhibition at 1 ppm (fungal mycelium) [%],pest or weed control at 200 ppm [1] [%],pest or weed control at 200 ppm [2] [%],inhibition of growth at 100 ppm (Candida albicans; [3]) [%],inhibition of growth at 100 ppm (Candida albicans; [4]) [%],inhibition of growth at 100 ppm (Candida albicans; [5]) [%],also measured
CC=CC#CCN1N=C(c2ccc(Cl)cc2)CCC1=O [Compound 101],100,75,0,–,–,–,–
C/C=C\C#CCN1N=C(c2ccc(Cl)cc2)CCC1=O [Compound 102],100,99,0,–,–,–,–
C/C=C/C#CCN1N=C(c2ccc(Cl)cc2)CCC1=O [Compound 103],100,95,0,–,–,–,–
CCC#CCN1N=C(c2ccc(F)c(Cl)c2)CCC1=O [Compound 104],–,0,0,–,–,–,inhibition at 5 ppm (fungal mycelium): 100%
O=C1CCC(c2ccc(Cl)cc2)=NN1Cc1cccc(Cl)c1 [Compound 105],–,75,0,–,–,–,inhibition at 10 ppm (fungal mycelium): 33.3%
CC#CCN1N=C(C=Cc2ccc(C(C)(C)C)cc2)CCC1=O [Compound 107],–,0,0,–,–,–,inhibition at 200 ppm (fungal mycelium): 83.7%
CCC#CCn1nc(-c2ccc(Cl)c(F)c2)ccc1=O [Compound 120],100,99,–,100,100,100,–
CCC#CCn1nc(-c2ccc(Br)cc2)ccc1=O [Compound 121],100,95,–,100,100,100,–
CCC#CCn1nc(-c2ccc(Br)c(F)c2)ccc1=O [Compound 127],100,0,–,100,100,100,–
CCC#CCn1nc(-c2ccc(F)c(Cl)c2)ccc1=O [Compound 129],100,0,0,–,–,–,–
CC(F)C#CCn1nc(-c2ccc(Cl)cc2)ccc1=O (stereo not shown) [Compound 130],100,–,–,100,100,100,–
O=c1ccc(-c2ccc(Cl)cc2)nn1CC#CCCF [Compound 131],100,–,–,100,100,100,–
CC#CCN1N=C(c2cccnc2)CCC1=O [Compound 132],–,0,0,–,–,–,inhibition at 200 ppm (fungal mycelium): 91.8%
"CCC#CCC1(CC#CCC)c2cc(Cl)ccc2-c2n[nH]c(=O)cc21 [Compound 151, 5,5'-[bis(pent-2-yn-1-yl)]-7-chloro-2,5-dihydroindeno-[1,2-c]-(2H)-pyridazin-3-one]",–,0,–,–,–,–,inhibition at 100 ppm (fungal inoculum): 80.6%
"CCC#CCN1N=C(c2ccc(Cl)cc2)CCC1=S [Compound 153, 6-(4-chlorophenyl)-2-(2'-pentynyl)-4,5-dihydropyridazinthione]",–,0,–,100,100,100,inhibition at 10 ppm (fungal mycelium): 90.9%
CCC#CCn1nc(-c2ccc(Cl)cc2)c2ccccc2c1=O [Compound 154],–,50,0,–,–,–,inhibition at 10 ppm (fungal mycelium): 16%
CCC#CCN1N=C2c3ccc(Cl)cc3C(C)C2CC1=O (stereo not shown) [Compound 155],–,100,90,–,–,–,inhibition at 10 ppm (fungal mycelium): 92%
"CCC#CCN1N=C(c2ccc(Cl)cc2)CC=C1Cl [Compound 157, 6-(4-chlorophenyl)-3-chloro-2-(2'-pentyn-1-yl)-2,5-dihydropyridazine]",–,10,0,–,–,–,inhibition at 10 ppm (fungal mycelium): 100%
CCC#CCN1N=C(c2ccc(Cl)cc2)CC=C1n1cncn1 [Compound 159],100,0,0,–,–,–,–
CCC#CCN1N=C(c2ccc(Cl)cc2)CC=C1Br [Compound 160],100,0,95,–,–,–,–
"CCC#CCN1N=C(c2ccc3ccccc3n2)CCC1=O [Compound 229, 6-(2-quinoline)-2-(2'-pentynyl)-4,5-dihydropyridazinone]",–,–,–,100,100,100,inhibition at 5 ppm (fungal mycelium): 100%
